3 compounds from ChEMBL document CHEMBL3853312, “Blocking Blood Flow to Solid Tumors by Destabilizing Tubulin: An Approach to Targeting Tumor Growth” (J Med Chem, 2016) can be followed below.

Common to all, as to type: ADME, organism-based
The nature of data set [1]: Drug excretion in iv dosed human urine assessed as unchanged compound administered as 30 mins infusion after 24 hrs by LC-MS/MS analysis. The following applies: read-out: Drug excretion.
Data set [2] in a line: Tmax in human at 250 mg, po qd regimen measured on day 7 post dose by LC-MS analysis. The settings on record: in vivo.
A short description of data set [3]: Apparent half life in human at 11.5 to 42 mg/m'-2, iv dosed as 30 mins infusion by LC-MS/MS analysis. The settings on record: in vivo, read-out: t1/2(app).

By Tmax is commonly meant the time at which the peak concentration occurs.

For `COc1cc(C(=O)c2ccc(-c3csc(NC(=O)[C@@H](N)C(C)C)n3)cc2-n2cncn2)cc(OC)c1OC`, the dose excreted at 24 h in data set [1] was under 1%.

For `COc1ccc(S(=O)(=O)Nc2cccnc2Nc2ccc(O)cc2)cc1` [ABT-751], in data set [2], the Tmax came out at 120 min.

On to `COc1ccc(/C=C\c2cc(OC)c(OC)c(OC)c2)cc1NC(=O)[C@@H](N)CO` [OMBRABULIN], for which the half-life in data set [3] turned out to be 12 min.
